{"source": "patent US11793746B2", "about": "“Intense skin hydration systems and methods” (priority 2020, dated 2023)", "format_in_all_cases": "cell-based", "key": {"[1]": {"test_system": "human skin analog, Skin^2", "assay": "MTT cytotoxicity assay", "details": "cytotoxic = levels below 80% of untreated control", "text": "Preclinical studies used a three-dimensional metabolically and mitotically active in vitro human skin analog, Skin^2™. This human skin substrate consists of neonatal foreskin fibroblasts that secrete a functionally active extracellular matrix grown on a medical-grade nylon mesh cocultured with human neonatal foreskin keratinocytes that differentiate into a multilayered epidermis.\nThis Example tested cellular viability and measured cell respiration in vitro in response to the application of GC-100 preparations.\nThe toxicity of a substance can be quantified by sustained metabolic activity of the cell in the presence of test substance. The integrity of cellular metabolism can be evaluated using the MTT Coloration Assay, which relies on the metabolism of 3-[4,5-dimethylthiazol-2-yl]-2,5-diphenyl tetrazolium bromide by succinate dehydrogenase of the citric acid cycle. Since the metabolism of MTT is dependent on mitochondrial activity, the amount of metabolite produced can be correlated with the number of viable cells present per well. The metabolite concentration is measured via spectrophotometry, with the absorption value converted to an absolute number that describes cellular growth."}, "[2]": {"test_system": "human diploid fibroblasts", "assay": "Fibroblast proliferation (MTT) in suboptimal nutritional medium", "details": "for Cells/well (×10^3): control 15", "text": "This Example quantifies the biostimulating activity of GC-100 on human diploid fibroblasts in a suboptimal nutritional environment.\nCellular proliferation, or mitotic activity, will be assessed using an MTT assay. MTT added to the microtiter wells is metabolized by succinate dehydrogenase of the citric acid cycle. Since the metabolism of MTT is dependent on mitochondrial activity, the amount of metabolite produced can be correlated with the number of viable cells present per well. The metabolite concentration is measured via spectrophotometry, with the absorption value converted to an absolute number that describes cellular growth based on standardized curves. The results are shown in Table 2 and FIG. 5, which is a graph showing fibroblast proliferation in a suboptimal nutritional environment."}, "tyrosinase": {"target": "T1, tyrosinase (Mus musculus, UniProt P11344)", "T1 construct": "endogenous in cells; host or cells: B16 melanoma cells", "T1 sequence (P11344 19-533)": "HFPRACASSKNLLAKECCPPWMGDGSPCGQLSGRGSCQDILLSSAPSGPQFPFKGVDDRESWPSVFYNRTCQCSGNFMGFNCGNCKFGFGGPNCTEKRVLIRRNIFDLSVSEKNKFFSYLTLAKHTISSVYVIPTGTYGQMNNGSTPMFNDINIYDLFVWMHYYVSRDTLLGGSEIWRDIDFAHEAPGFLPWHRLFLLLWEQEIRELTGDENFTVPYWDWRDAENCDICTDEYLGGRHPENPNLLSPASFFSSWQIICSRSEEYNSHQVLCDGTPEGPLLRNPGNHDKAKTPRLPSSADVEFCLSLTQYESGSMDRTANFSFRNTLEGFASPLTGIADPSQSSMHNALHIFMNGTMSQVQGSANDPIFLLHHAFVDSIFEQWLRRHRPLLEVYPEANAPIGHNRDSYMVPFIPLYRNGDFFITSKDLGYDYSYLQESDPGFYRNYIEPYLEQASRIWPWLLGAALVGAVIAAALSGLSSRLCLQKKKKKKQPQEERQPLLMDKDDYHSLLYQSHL", "assay": "Tyrosinase activity in B16 melanoma cells", "description": "This Example establishes and quantifies the effect of GC-100 on tyrosinase synthesis in B16 melanoma cells.\nIt has been reported that tyrosinase in synthesized in B16 melanoma cells within 24 hours of plating. On the basis of these reports, B16 melanoma cells were used to evaluate the inhibitory effects of GC-100 on tyrosinase synthesis. As an indication of tyrosinase synthesis, tyrosinase activity in B16 melanoma cells was measured in addition to the amount of melanin synthesized per cell.\nB16 melanoma cells (5.0′×10^4) were incubated in a 96-well microplate supplemented with DMEM and 5% fetal calf serum at 37° C. for 24 hours. Incubation was continued for an additional 24 hours at 37° C. in DMEM supplemented with GC-100 at either 250 μg/mL, 500 μg/mL, or 1000 μg/mL. After washing cells with PBS twice, the cells were lysed with 50 μL of phosphate buffer (0.05 mM, pH 6.8) containing 0.1% Triton-X, and incubated at 37° C. for 30 minutes. Then 100 μL of phosphate buffer (0.1 mM, pH 6.8) containing 0.1% DOPA was added to the lysate and incubated at 37° C. for 3 hours. The resultant melanin content and protein content of the lysate were then quantified.\nGC-100 selected for examination was quantitatively evaluated regarding its inhibitory activity of melanogenesis in B16 melanoma cells. B16 melanoma cells were seeded into a 60 mm diameter dish at density of 1.5′×10^5 cells/dish and incubated at 37° C. in DMEM supplemented with 10% FCS and 40 mM sodium lactate. After 4 days, the medium was exchanged to DMEM supplemented with 5% FCS and the aforementioned concentrations of GC-100 and cultured at 37° C. The results are shown in Table 5 and FIG. 11, which is a graph showing tyrosinase activity as a function of GC-100 concentration."}}, "data": [{"substance": "H-Lys-Pro-NH2 [GC-100]", "values": [{"measurement": "cytotoxic response (MTT)", "setting": "[1]", "result": "does not elicit a cytotoxic response"}, {"measurement": "Cells/well (×10^3)", "setting": "[2]; 0.1% GC-100", "result": "17 ×10^3 cells/well"}, {"measurement": "Cells/well (×10^3)", "setting": "[2]; 0.5% GC-100", "result": "20 ×10^3 cells/well"}, {"measurement": "Cells/well (×10^3)", "setting": "[2]; 1.0% GC-100", "result": "21 ×10^3 cells/well"}, {"measurement": "Cells/well (×10^3)", "setting": "[2]; 5% GC-100", "result": "28 ×10^3 cells/well"}, {"measurement": "Cells/well (×10^3)", "setting": "[2]; 10% GC-100", "result": "24 ×10^3 cells/well"}, {"measurement": "Cumulative fibroblast proliferation (mitosis)", "setting": "[2]; in the presence of GC-100", "result": 83, "unit": "%"}, {"measurement": "Tyrosinase activity (% of untreated control)", "setting": "tyrosinase; GC-100 250 μg/mL", "result": "57.3 ± 12", "unit": "%"}, {"measurement": "Tyrosinase activity (% of untreated control)", "setting": "tyrosinase; GC-100 500 μg/mL", "result": "34.1 ± 14", "unit": "%"}, {"measurement": "Tyrosinase activity (% of untreated control)", "setting": "tyrosinase; GC-100 1000 μg/mL", "result": "6.6 ± 14.8", "unit": "%"}]}]}
